Data from patent US20110305703A1, “ISOLATED VEGF-C AND VEGF-D PEPTIDES AND USES THEREOF” (Vegenics Pty Limited, priority 2008, published 2011).
Positions count from the first letter of the chain named. Names and notes keep the numbering of the source. “Also recorded” adds a separate entry of the source. No end group written: not given here. *: point of attachment. Biotin = O=C1N[C@H]2[C@H](CS[C@H]2CCCCC(=O)*)N1

B1: E148D: VEGF-DΔNΔC variant with mutation E148D (protein)
chain: DYKDDDDKFYDIETLKVIDEEWQRTQCSPRETCVEVASELGKSTNTFFKPPCVNVFRCGGCCNDESLICMNTSTSYISKQLFEISVPLTSVPELVPVKVANHTGCKCLPTAPRHPYS
B2: E149D: VEGF-DΔNΔC variant with mutation E149D (protein)
chain: B1 chain with D64E, E65D
B3: L151V: VEGF-DΔNΔC variant with mutation L151V (protein)
chain: B1 chain with D64E, L67V
B4: N147Q: VEGF-DΔNΔC variant with mutation N147Q (protein)
chain: B1 chain with N63Q, D64E
B5: S150T: VEGF-DΔNΔC variant with mutation S150T (protein)
chain: B1 chain with D64E, S66T
B6: S150G: VEGF-DΔNΔC variant with mutation S150G (protein)
chain: B1 chain with D64E, S66G

What follows are molecules tested on VDnmAb (assay: Western blot of conditioned media containing VEGF-DΔNΔC variants probed with VDnmAb). Settings: conditioned media of 293-F cells; in comparison to VEGF-DΔNΔC.
Type: binding
Excerpt: Site-directed mutagenesis. DNA encoding VEGF-DΔNΔC, a form of mature human VEGF-D tagged at the N-terminus with the FLAG octapeptide (FIG. 11; SEQ ID NO: 145), was subjected to site-directed mutagenesis by PCR to generate VEGF-DΔNΔC variants. Mutations were introduced by amplification with the following primers: N147Q with 5'-[…] NO: 146) and 5'-[…] with 5'-[…] NO: 148) and 5'-[…] with 5'-[…] NO: 150) and 5'-[…] with 5'-[…] NO: 152) and 5'-[…] with 5'-[…] NO: 154) and 5'-[…] with 5'-[…] NO: 156) and 5'-[…] with 5'-[…] NO: 158) and 5'-[…] NO: 159) (FIG. 12). The desired mutations, as well as the absence of any unwanted mutations, in the resulting DNA fragments were confirmed by nucleotide sequencing. Expression of VEGF-DΔNΔC variants. Plasmids containing DNA encoding VEGF-DΔNΔC or its variants were used for transient transfection of 293-F cells with the FreeStyle MAX 293 Expression System according to manufacturer's instructions (Invitrogen). Cells expressing each variant were cultured in serum-free medium, and 30 ml of conditioned media was collected 7 days post-transfection and used for analysis. Western Blot Analysis. Conditioned media containing different variants of VEGF-DΔNΔC were resolved by SDS-PAGE, transferred to nitrocellulose membrane, probed with M2 anti-FLAG or VDnmAb antibodies labeled with IRDye 800CW according to manufacturer's instructions (LI-COR), and detected with an Odyssey Infrared Imaging System (LI-COR).

Row | Molecule | VDnmAb binding to VEGF-DΔNΔC variant in Western blot
1 | B1 | complete loss of VDnmAb binding
2 | B2 | dramatic decrease in the amount of VDnmAb bound
3 | B3 | dramatic decrease in the amount of VDnmAb bound; also recorded: significantly affected VDnmAb binding
4 | B4 | significant decrease in the amount of VDnmAb bound
5 | B5 | significant decrease in the amount of VDnmAb bound
6 | B6 | significantly affected VDnmAb binding; also recorded: significantly affected, but did not eliminate, binding

The molecules below were run on VEGF-D neutralizing monoclonal antibody mAb 4A5 (VDnmAb) (assay: ELISA of biotinylated synthetic peptides on streptavidin plates for VDnmAb binding). Settings: 2nd peptide library; 10 pmol peptide; VDnmAb 2 μg/ml; signal more than two-fold greater than background considered positive.
Excerpt: Peptides. A series of synthetic 15-mer peptides (peptides 1 to 35, SEQ ID NOs: 4 to 38 in FIG. 4B, which overlap each other by 12 amino acids) were synthesized (Mimotopes Pty Ltd, Melbourne, Australia). The peptides encompassed the VHD of human VEGF-D (SEQ ID NO: 3, FIG. 4A). Peptide 36 (SEQ ID NO: 39) represented an artificial sequence including a FLAG tag as a positive control for a commercial anti-FLAG mAb (M2; Sigma) that was used as control for non-specific binding to peptides 1 to 35 (SEQ ID NOs: 4 to 38). Biotin was included at the N-terminal of each peptide during synthesis, except that peptide 1 (SEQ ID NO: 4, representing the N-terminal of the VHD) has biotin at the C-terminal. The four-amino acid linker “SGSG” was introduced between the N-terminal of each peptide sequence and biotin to provide more flexibility to peptides after immobilization on streptavidin plates, except peptide 1 (SEQ ID NO: 4) that included the C-terminal linker “GSG”.
ELISA. Reacti-Bind streptavidin high-binding-capacity coated plates (Pierce) were coated with 10 pmol of each peptide in PBS, blocked with 5% milk in PBS-0.1% Tween 20, and incubated with 100 μl of VEGF-D neutralizing monoclonal antibody mAb 4A5 (referred to herein as VDnmAb) or M2 at 2 μg/ml for 1 h at room temperature. Bound mAb was detected with goat anti-mouse IgG coupled with HRP. ABTS was used as the substrate, and the absorbance was read at 405 nm in a multiwell plate reader.
In this 2nd peptide library, biotin was included at the N-terminal of each peptide, and the four-amino acid linker “SGSG” was introduced between each peptide sequence and the biotin residue to provide more flexibility to peptides after immobilization on streptavidin plates. ELISA-based analysis of the 2nd peptide library was carried out as for the 1st peptide library.
Peptide 67 (SEQ ID NO: 141, the same as peptide 36, SEQ ID NO: 39 from the 1st library) and peptide 68 (SEQ ID NO: 142), both containing the FLAG tag, were used as controls. In this 3rd peptide library, biotin was included at the N-terminal of each peptide except peptides 6, 12 and 14 (SEQ ID NOs: 80, 86 and 88) which have C-terminal biotin residues. To provide more flexibility to peptides after immobilization on streptavidin plates, an amino acid linker was introduced between biotin residues and the peptide sequence: “SGSG” for N-terminal biotin; “SGS” for C-terminal biotin. ELISA-based analysis of the 3rd peptide library was carried out as for the 1st peptide library, described in Example 1.

Row | Molecule | VDnmAb binding to peptide (ELISA signal, absorbance at 405 nm)
7 | peptide 23 (SEQ ID NO: 62): 2nd library: single mutation of cysteine in the binding region, C145S (SGSGVNVFRCGGSCNEESL) | very minor or no effect on VDnmAb binding
8 | peptide 24 (SEQ ID NO: 63): 2nd library: single mutation of cysteine in the binding region, C142S (SGSGVNVFRSGGCCNEESL) | very minor or no effect on VDnmAb binding
9 | peptide 25 (SEQ ID NO: 64): 2nd library: mutation of two of the cysteine residues to serine (SGSGVNVFRCGGSSNEESL) | more effect
10 | peptide 26 (SEQ ID NO: 65): 2nd library: mutation of two of the cysteine residues to serine (SGSGVNVFRSGGSCNEESL) | more effect
11 | peptide 27 (SEQ ID NO: 66): 2nd library: mutation of two of the cysteine residues to serine (SGSGVNVFRSGGCSNEESL) | more effect
12 | peptide 28 (SEQ ID NO: 67): 2nd library: mutation of all three cysteine residues to serine (SGSGVNVFRSGGSSNEESL) | significant loss of antibody binding

Same assay, conditions: 3rd peptide library; 10 pmol peptide; VDnmAb 2 μg/ml; signal more than two-fold over background considered positive

Row | Molecule | VDnmAb binding to peptide (ELISA signal, absorbance at 405 nm)
13 | peptide 22 (SEQ ID NO: 96): 3rd library: deletion of R141 (SGSGVFCGGCCNEESL) | little or no effect on VDnmAb binding
14 | peptide 23 (SEQ ID NO: 97): 3rd library: mutation N147Q (SGSGVFRCGGCCQEESL) | loss, even complete loss, of VDnmAb binding
15 | peptide 24 (SEQ ID NO: 98): 3rd library: mutation N147A (SGSGVFRCGGCCAEESL) | loss, even complete loss, of VDnmAb binding
16 | peptide 25 (SEQ ID NO: 99): 3rd library: variant with deletion of one of N147, E148, E149, S150 (SGSGVFRCGGCCEESL) | loss of VDnmAb binding
17 | peptide 26 (SEQ ID NO: 100): 3rd library: mutation E148D (SGSGVFRCGGCCNDESL) | loss, even complete loss, of VDnmAb binding
18 | peptide 27 (SEQ ID NO: 101): 3rd library: mutation E148A (SGSGVFRCGGCCNAESL) | loss, even complete loss, of VDnmAb binding
19 | peptide 28 (SEQ ID NO: 102): 3rd library: variant with deletion of one of N147, E148, E149, S150 (SGSGVFRCGGCCNESL) | loss of VDnmAb binding
20 | peptide 29 (SEQ ID NO: 103): 3rd library: mutation E149D (SGSGVFRCGGCCNEDSL) | loss, even complete loss, of VDnmAb binding
21 | peptide 30 (SEQ ID NO: 104): 3rd library: mutation E149A (SGSGVFRCGGCCNEASL) | loss, even complete loss, of VDnmAb binding
22 | peptide 31 (SEQ ID NO: 105): 3rd library: double mutation E148D/E149D (SGSGVFRCGGCCNDDSL) | loss, even complete loss, of VDnmAb binding
23 | peptide 32 (SEQ ID NO: 106): 3rd library: double mutation E148A/E149A (SGSGVFRCGGCCNAASL) | loss, even complete loss, of VDnmAb binding
24 | peptide 33 (SEQ ID NO: 107): 3rd library: variant with deletion of one of N147, E148, E149, S150 (SGSGVFRCGGCCNSL) | loss of VDnmAb binding
25 | peptide 58 (SEQ ID NO: 132): 3rd library: deletion of most of the cysteine and glycine residues at positions 142 to 146 (Biotin-SGSGNVFNEESL) | loss, but not complete loss, of binding
26 | peptide 59 (SEQ ID NO: 133): 3rd library: simultaneous changes of most of residues 142 to 146 to alanine (SGSGNVFAAGAAANEESL) | loss, but not complete loss, of binding
